This is an account of results in patent US6506772B1, “Substituted [1,2,4]triazolo[1,5a]pyridine derivatives with activity as adenosine receptor ligands” (Hoffmann-La Roche Inc., priority 2000, dated 2003).

pKi: −log10 of the molar value.

For one assay, the target named is T1, HA1 adenosine receptor (Homo sapiens, UniProt P30542).
T1 sequence (P30542 1-326): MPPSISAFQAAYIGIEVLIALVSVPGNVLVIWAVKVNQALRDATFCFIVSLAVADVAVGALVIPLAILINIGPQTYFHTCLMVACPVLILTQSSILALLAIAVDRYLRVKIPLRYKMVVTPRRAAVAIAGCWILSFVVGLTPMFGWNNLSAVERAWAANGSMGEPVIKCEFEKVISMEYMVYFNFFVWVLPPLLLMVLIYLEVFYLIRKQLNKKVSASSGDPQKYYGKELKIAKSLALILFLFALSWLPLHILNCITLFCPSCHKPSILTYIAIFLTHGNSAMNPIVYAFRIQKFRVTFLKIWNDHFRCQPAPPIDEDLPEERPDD
Kind of assay: Human adenosine A1 receptor affinity (Ki hA1). Type of assay: binding. To be noted: affinity to human adenosine A1 receptor.

In assay [1] the target is T2, human adenosine A2A receptor (Homo sapiens, UniProt P29274).
T2 construct: expressed in transfected cells; host or cells: CHO cells, Semliki Forest virus expression system; membrane preparation
T2 sequence (P29274 whole entry): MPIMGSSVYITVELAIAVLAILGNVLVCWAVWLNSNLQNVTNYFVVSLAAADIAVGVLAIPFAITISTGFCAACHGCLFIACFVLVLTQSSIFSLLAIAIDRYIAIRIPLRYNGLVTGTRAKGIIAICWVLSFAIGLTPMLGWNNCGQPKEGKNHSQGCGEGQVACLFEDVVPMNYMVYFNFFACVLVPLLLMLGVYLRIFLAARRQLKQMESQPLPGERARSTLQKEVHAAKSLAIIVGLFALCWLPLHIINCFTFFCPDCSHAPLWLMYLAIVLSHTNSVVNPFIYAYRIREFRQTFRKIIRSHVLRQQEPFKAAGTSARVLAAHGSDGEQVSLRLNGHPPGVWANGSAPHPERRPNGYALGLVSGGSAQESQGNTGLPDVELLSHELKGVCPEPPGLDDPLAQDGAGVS
Kind of assay: Human adenosine A2A receptor [3H]-SCH-58261 binding assay. To be noted: for pKi: affinity to human adenosine A2A receptor, read-out: Ki HA2A; for selectivity (A1/A2a): calculated ratio of the affinity to the HA1 receptor to the HA2a receptor.

What is called pKi is −log10 of the Ki, conventionally taken in molar units. With `Nc1cc(C(=O)NCc2ccccc2Cl)cc2nc(-c3cc(Br)co3)nn12` [Example 174, 5-Amino-2-(4-bromo-furan-2-yl)-[1,2,4]triazolo[1,5-a]pyridine-7-carboxylic acid 2-chloro-benzylamide], the negative logarithm of the Ki (pKi) on HA1 adenosine receptor is 7.76. Further, in assay [1], the negative logarithm of the Ki (pKi) was 7.95 and the “selectivity (A1/A2a)” value is given as 1.6.

Turning to `Nc1cc(C(=O)NCc2ccccc2Br)cc2nc(-c3cc(Br)co3)nn12` [Example 175, 5-Amino-2-(4-bromo-furan-2-yl)-[1,2,4]triazolo[1,5-a]pyridine-7-carboxylic acid 2-bromo-benzylamide], the pKi at HA1 adenosine receptor was 7.65; in assay [1] it was 7.84. Besides, the “selectivity (A1/A2a)” value in assay [1] is 1.5.

With `COc1ccc(CNC(=O)c2cc(N)n3nc(-c4cc(Br)co4)nc3c2)cc1` [Example 176, 5-Amino-2-(4-bromo-furan-2-yl)-[1,2,4]triazolo[1,5-a]pyridine-7-carboxylic acid 4-methoxy-benzylamide], the pKi on HA1 adenosine receptor was 6.82. Further, in assay [1], the pKi was 6.48 and the “selectivity (A1/A2a)” value is recorded as 0.5.

`COc1cc(CNC(=O)c2cc(N)n3nc(-c4cc(Br)co4)nc3c2)cc(OC)c1OC` [Example 177, 5-Amino-2-(4-bromo-furan-2-yl)-[1,2,4]triazolo[1,5-a]pyridine-7-carboxylic acid 3,4,5-trimethoxy-benzylamide] showed a pKi on HA1 adenosine receptor of 6.57. Further, in assay [1], the pKi was 6.70 and the “selectivity (A1/A2a)” value is reported as 1.3.

For the molecule `CCCCNC(=O)c1cc(N)n2nc(-c3cccn3C)nc2c1` [Example 178, 5-Amino-2-(1-methyl-1H-pyrrol-2-yl)-[1,2,4]triazolo[1,5-a]pyridine-7-carboxylic acid butylamide], the negative logarithm of the Ki (pKi) at HA1 adenosine receptor was 6.35. Also, in assay [1], the negative-log Ki (pKi) was 7.19 and the “selectivity (A1/A2a)” value is reported as 6.9.

On HA1 adenosine receptor, `Cn1cccc1-c1nc2cc(C(=O)NC3CCCCC3)cc(N)n2n1` [Example 179, 5-Amino-2-(1-methyl-1H-pyrrol-2-yl)-[1,2,4]triazolo[1,5-a]pyridine-7-carboxylic acid cyclohexylamide] showed a negative-log Ki (pKi) of 6.11. Moreover, in assay [1], the pKi is 6.84 and the “selectivity (A1/A2a)” value is on record as 5.4.

In turn, `Cn1cccc1-c1nc2cc(C(=O)NCc3ccccc3)cc(N)n2n1` [Example 180, 5-Amino-2-(1-methyl-1H-pyrrol-2-yl)-[1,2,4]triazolo[1,5-a]pyridine-7-carboxylic acid benzylamide] showed a negative logarithm of the Ki (pKi) at HA1 adenosine receptor of 6.51. Besides, in assay [1], the negative logarithm of the Ki (pKi) was 6.95 and the “selectivity (A1/A2a)” value is 2.7.

On to `Cn1cccc1-c1nc2cc(C(=O)NCc3ccccc3Cl)cc(N)n2n1` [Example 181, 5-Amino-2-(1-methyl-1H-pyrrol-2-yl)-[1,2,4]triazolo[1,5-a]pyridine-7-carboxylic acid 2-chloro-benzylamide], for which the pKi on HA1 adenosine receptor was 6.59; in assay [1], 7.27. Further, the “selectivity (A1/A2a)” value in assay [1] is 4.7.

For `Cn1cccc1-c1nc2cc(C(=O)NCc3ccccc3Br)cc(N)n2n1` [Example 182, 5-Amino-2-(1-methyl-1H-pyrrol-2-yl)-[1,2,4]triazolo[1,5-a]pyridine-7-carboxylic acid 2-bromo-benzylamide], the negative-log Ki (pKi) at HA1 adenosine receptor was 6.57; in assay [1], 7.26. Moreover, in assay [1], the “selectivity (A1/A2a)” value was 4.9.

As to `COc1ccc(CNC(=O)c2cc(N)n3nc(-c4ccco4)nc3c2)cc1` [Example 183, 5-Amino-2-furan-2-yl-[1,2,4]triazolo[1,5-a]pyridine-7-carboxylic acid 4-methoxy-benzylamide], on HA1 adenosine receptor, the pKi is 6.52. In assay [1], the pKi was 7.47 and the “selectivity (A1/A2a)” value was 9.0.

Consider `CCCCNC(=O)c1cc(N)n2nc(-c3sccc3C)nc2c1` [Example 184, 5-Amino-2-(3-methyl-thiophen-2-yl)-[1,2,4]triazolo[1,5-a]pyridine-7-carboxylic acid butylamide], for which the negative-log Ki (pKi) on HA1 adenosine receptor was 6.87. For the same molecule, in assay [1], the negative logarithm of the Ki (pKi) is 7.16 and the “selectivity (A1/A2a)” value was 1.9.

Regarding `CCN(CC)C(=O)c1cc(N)n2nc(-c3sccc3C)nc2c1` [Example 185, 5-Amino-2-(3-methyl-thiophen-2-yl)-[1,2,4]triazolo[1,5-a]pyridine-7-carboxylic acid diethylamide], the pKi on HA1 adenosine receptor was 5.85; in assay [1], 6.62. Further, in assay [1], the “selectivity (A1/A2a)” value is reported as 6.0.

`Cc1ccsc1-c1nc2cc(C(=O)N(C(C)C)C(C)C)cc(N)n2n1` [Example 186, 5-Amino-2-(3-methyl-thiophen-2-yl)-[1,2,4]triazolo[1,5-a]pyridine-7-carboxylic acid diisopropylamide]: the negative logarithm of the Ki (pKi) on HA1 adenosine receptor is 6.60. Besides, in assay [1], the negative logarithm of the Ki (pKi) was 6.68 and the “selectivity (A1/A2a)” value was 1.2.

In turn, `Cc1ccsc1-c1nc2cc(C(=O)NC3CCc4ccccc43)cc(N)n2n1` (stereo not drawn) [Example 187, 5-Amino-2-(3-methyl-thiophen-2-yl)-[1,2,4]triazolo[1,5-a]pyridine-7-carboxylic acid indan-1-ylamide] showed a pKi at HA1 adenosine receptor of 6.64. In assay [1], the negative logarithm of the Ki (pKi) is 6.65 and the “selectivity (A1/A2a)” value was 1.0.

At HA1 adenosine receptor, `Cc1ccsc1-c1nc2cc(C(=O)N3CCCC3)cc(N)n2n1` [Example 188, [5-Amino-2-(3-methyl-thiophen-2-yl)-[1,2,4]triazolo[1,5-a]pyridin-7-yl]-pyrrolidin-1-yl-methanone] gave a pKi of 6.15. For the same molecule, in assay [1], the negative-log Ki (pKi) was 6.65 and the “selectivity (A1/A2a)” value is given as 3.1.

`Cc1ccsc1-c1nc2cc(C(=O)N3CCCCC3)cc(N)n2n1` [Example 189, [5-Amino-2-(3-methyl-thiophen-2-yl)-[1,2,4]triazolo[1,5-a]pyridin-7-yl]-piperidin-1-yl-methanone]: the negative logarithm of the Ki (pKi) on HA1 adenosine receptor is 6.12. Moreover, in assay [1], the pKi was 6.57 and the “selectivity (A1/A2a)” value was 2.9.

In the case of `Cc1ccsc1-c1nc2cc(C(=O)NC(C)c3ccccc3)cc(N)n2n1` (stereo not drawn) [Example 190, 5-Amino-2-(3-methyl-thiophen-2-yl)-[1,2,4]triazolo[1,5-a]pyridine-7-carboxylic acid (1-phenyl-ethyl)-amide], on HA1 adenosine receptor, the pKi was 7.33. In assay [1], the pKi is 6.44 and the “selectivity (A1/A2a)” value is listed as 0.1.

For `Cc1ccsc1-c1nc2cc(C(=O)NCc3ccccc3Cl)cc(N)n2n1` [Example 191, 5-Amino-2-(3-methyl-thiophen-2-yl)-[1,2,4]triazolo[1,5-a]pyridine-7-carboxylic acid 2-chloro-benzylamide], the pKi at HA1 adenosine receptor is 6.88. For the same molecule, in assay [1], the negative-log Ki (pKi) was 6.97 and the “selectivity (A1/A2a)” value is reported as 1.2.

On to `COc1ccccc1CNC(=O)c1cc(N)n2nc(-c3sccc3C)nc2c1` [Example 192, 5-Amino-2-(3-methyl-thiophen-2-yl)-[1,2,4]triazolo[1,5-a]pyridine-7-carboxylic acid 2-methoxy-benzylamide], for which the pKi at HA1 adenosine receptor is 6.95. In addition, in assay [1], the pKi is 6.89 and the “selectivity (A1/A2a)” value is recorded as 0.9.

At HA1 adenosine receptor, `CCCCNC(=O)c1cc(N)n2nc(-c3ccc(C)s3)nc2c1` [Example 193, 5-Amino-2-(5-methyl-thiophen-2-yl)-[1,2,4]triazolo[1,5-a]pyridine-7-carboxylic acid butylamide] had a pKi of 7.13. Also, in assay [1], the pKi was 7.38 and the “selectivity (A1/A2a)” value is given as 1.8.

`CCN(C(=O)c1cc(N)n2nc(-c3ccc(C)s3)nc2c1)C(C)C` [Example 194, 5-Amino-2-(5-methyl-thiophen-2-yl)-[1,2,4]triazolo[1,5-a]pyridine-7-carboxylic acid ethyl-isopropyl-amide] had a negative-log Ki (pKi) at HA1 adenosine receptor of 6.61. Further, in assay [1], the pKi is 7.25 and the “selectivity (A1/A2a)” value is 4.4.

Consider `Cc1ccc(-c2nc3cc(C(=O)NC4CCCCC4)cc(N)n3n2)s1` [Example 195, 5-Amino-2-(5-methyl-thiophen-2-yl)-[1,2,4]triazolo[1,5-a]pyridine-7-carboxylic acid cyclohexylamide], for which, at HA1 adenosine receptor, the pKi is 6.84. In addition, in assay [1], the pKi is 6.96 and the “selectivity (A1/A2a)” value was 1.3.

On HA1 adenosine receptor, `Cc1ccc(-c2nc3cc(C(=O)N4CCCC4)cc(N)n3n2)s1` [Example 196, [5-Amino-2-(5-methyl-thiophen-2-yl)-[1,2,4]triazolo[1,5-a]pyridin-7-yl]-pyrrolidin-1-yl-methanone] gave a negative logarithm of the Ki (pKi) of 6.36. In assay [1], the pKi was 7.28 and the “selectivity (A1/A2a)” value is 8.3.

With `Cc1ccc(-c2nc3cc(C(=O)NCc4ccccc4)cc(N)n3n2)s1` [Example 197, 5-Amino-2-(5-methyl-thiophen-2-yl)-[1,2,4]triazolo[1,5-a]pyridine-7-carboxylic acid benzylamide], the pKi on HA1 adenosine receptor is 7.04; in assay [1], 6.75. In addition, the “selectivity (A1/A2a)” value in assay [1] is 0.5.

In turn, `Cc1ccc(-c2nc3cc(C(=O)NC(C)c4ccccc4)cc(N)n3n2)s1` (stereo not drawn) [Example 198, 5-Amino-2-(5-methyl-thiophen-2-yl)-[1,2,4]triazolo[1,5-a]pyridine-7-carboxylic acid (1-phenyl-ethyl)-amide] gave a pKi on HA1 adenosine receptor of 6.95. Also, in assay [1], the negative-log Ki (pKi) is 6.76 and the “selectivity (A1/A2a)” value is recorded as 0.6.

In the case of `Cc1ccc(-c2nc3cc(C(=O)NCc4ccccc4Cl)cc(N)n3n2)s1` [Example 199, 5-Amino-2-(5-methyl-thiophen-2-yl)-[1,2,4]triazolo[1,5-a]pyridine-7-carboxylic acid 2-chloro-benzylamide], on HA1 adenosine receptor, the pKi is 7.43. Besides, in assay [1], the negative-log Ki (pKi) is 7.52 and the “selectivity (A1/A2a)” value is on record as 1.2.
